Earlier results in US7586020B2, “Methods for determining effects of maternal treatments on offspring” (priority 1998, dated 2009).

System: (YS×VY)FI female mice
Conditions: between about 17 and 24 months of age

## Cl[C@H]1[C@H](Cl)[C@@H](Cl)[C@@H](Cl)[C@H](Cl)[C@H]1Cl [lindane]
  mortality, lindane-treated versus untreated control mice: no differences in mortality
